Test results as given in patent publication US20250352529A1, “COMBINED USE OF M1 MUSCARINIC RECEPTOR AGONISTS AND M3 MUSCARINIC RECEPTOR ANTAGONISTS TO TREAT CANCER” (The United States Government As Represented By The …, priority 2024, published 2025).
Like-named read-outs stand apart in the source and are kept apart here.

Experiments:
[1] = tested on: H508 human CRC cells; test: WST-1 cell proliferation assay, H508 cells; assay type: cell-based; conditions: for change in cell proliferation: trospium 5-50 μM; for effect of antagonist preincubation on xanomeline dose-response curve (proliferation): trospium 50 μM, darifenacin 30 and 60 μM; for IC50: Homo sapiens, read-out: half-maximal inhibitory concentration (IC50), cell proliferation
Protocol: (§1) FIG. 6A) Treating H508 cells for 5 days with carbachol (carb), a non-selective muscarinic receptor agonist stimulates cell proliferation measured using the WST-1 Cell Proliferation Assay (Roche). Cont, control; Carb, carbachol. Solid black circles represent values for individual replicates. […] Cells were incubated with or without agents for 5 days. N=4. FIG. 6D). Maximal proliferation responses observed with increasing concentrations of McN-A-343 in H508 (square), HT-29 (triangle), and HCT116 (circle) human CRC cells. Cells were incubated with agents for 5 days. Dose-response curves created by nonlinear regression (GraphPad Prism).
(§2) Human colon cancer cell lines (H508, HCT116) were grown in complete culture medium in a 37° C. incubator with 5% CO2 and sub-cultured weekly. H508 or HCT116 cells were seeded in 96-well plates, allowed to adhere for 24 h and changed to serum-free culture medium. Cells were treated for 5 days with Xanomeline, a selective M1R agonist, and were pre-incubated for 30 min with Darifenacin, a selective M3R antagonist or Trospium, a non-selective MR antagonist. Cell proliferation and cytotoxicity were measured using the WST-1 and LDH colorimetric assays, respectively. Absorbance was measured at 440 nm and 490/680 nm, respectively, using a computer-interfaced plate reader.

[2] = tested on: HCT116 human CRC cells; test: WST-1 cell proliferation assay, HCT116 cells; assay type: cell-based
Protocol: as §1, §2

[3] = tested on: HT-29 human CRC cells; test: WST-1 cell proliferation assay, HT-29 cells; assay type: cell-based; conditions: HT-29 cells (CHRM1:3-low), 5 days; read-out: half-maximal effective concentration (EC50) for inhibition of CRC cell proliferation
Protocol: as §1

[4] = tested on: H508 CRC cells; test: LDH release cytotoxicity assay; assay type: cell-based, human; conditions: increasing doses of xanomeline +/− 30 or 60 μM darifenacin
Protocol: FIG. 7A-B show combining a selective M3R inhibitor (darifenacin) with an M1R-selective activator potentiates inhibition of cell proliferation without cell injury. […] Triton X-100 was the positive control for LDH release. Symbols represent means+/−SEM of 3-9 replicates.
To exclude cell toxicity with these drug concentration, cellular release of lactate dehydrogenase (LDH) was measured.
as §2

[5] = H508 cells, 5 days, agent alone
[6] = NCI-H508, 120 h, H508 cells, agent alone, 5 days

SMILES | change in cell proliferation [1, 5] | effect of antagonist preincubation on xanomeline dose-response curve (proliferation) ([1]; H508 cells) | IC50 [1, 6] [µM] | also measured
C[N+](C)(C)CC#CCOC(=O)Nc1cccc(Cl)c1.[Cl-] [McN-A-343] | robustly and dose-dependently attenuated cell proliferation | – | – | EC50 ([1]; H508 cells (CHRM1:3-low), 5 days, read-out: half-maximal effective concentration (EC50) for inhibition of CRC cell proliferation): 137 µM; EC50 ([2]; HCT116 cells (CHRM1:3-high), 5 days, read-out: half-maximal effective concentration (EC50) for inhibition of CRC cell proliferation): 7.89 µM; EC50 [3]: 548 µM
C[N+](C)(C)CCOC(N)=O [carbachol, Carbachol] | two-fold increase in cell proliferation | – | – | –
NC(=O)C(c1ccccc1)(c1ccccc1)[C@@H]1CCN(CCc2ccc3c(c2)CCO3)C1 [darifenacin, Darifenacin] | – | shifted the xanomeline dose-response curve progressively leftward | 84 | –
O=C(O[C@H]1C[C@H]2CC[C@@H](C1)[N+]21CCCC1)C(O)(c1ccccc1)c1ccccc1 [trospium, Trospium] | did not alter cell proliferation | did not shift | – | –
CCCCCCOc1nsnc1C1=CCCN(C)C1 [xanomeline, Xanomeline] | robustly and dose-dependently attenuated cell proliferation | – | 32.8 | IC50 ([1]; NCI-H508, H508 cells, xanomeline plus 30 μM darifenacin): 21.6 µM; IC50 ([1]; NCI-H508, H508 cells, xanomeline plus 60 μM darifenacin): 18.7 µM; inhibition of cell proliferation compared to H508 cells ([2]; HCT116 cells, increasing xanomeline concentrations): attenuated at lower xanomeline concentrations; cell LDH leakage [4]: No cell LDH leakage was detected
